Data: PMC11579541, “In vitro, in vivo, and in silico approaches for evaluating the preclinical DMPK profiles of ammoxetine, a novel chiral serotonin and norepinephrine reuptake inhibitor” (Frontiers in Pharmacology, 2024)

Tests used:
[1] = PK studies in beagle dogs; assay type: in vivo; conditions: dog, in vivo; beagle dogs, same dose (2 mg/kg); prior preliminary experiment by the team, unpublished results; read-out: absolute bioavailability
Method: For the PK studies in rats and dogs, a total of 18 SD rats and 15 male beagle dogs were randomly divided into three groups, with six rats or five dogs per group, respectively. Prior to the experiments, all animals underwent a 12-h fasting period, while having free access to water. The animals were administered single oral doses of ammoxetine in three different dose levels: 8 mg/kg, 20 mg/kg, and 50 mg/kg for rats, and 2 mg/kg, 5 mg/kg, and 12.5 mg/kg for dogs, representing low, medium, and high doses. Serial blood samples were collected from the rats at 0, 2, 5, 15, and 30 min, as well as 1, 2, 4, 6, 8, 12, and 24 h post-dosing. For the dogs, blood samples were collected at 0, 5, 15, 30, and 45 min, as well as 1, 2, 4, 6, 8, 12, and 24 h post-dosing. Approximately 0.3 mL of blood was collected from the rats, while 2 mL of blood was collected from the dogs. The blood samples were collected into heparinized tubes. Following centrifugation, plasma samples were obtained and stored at −30°C until further analysis.
For the absolute bioavailability (F, %) study in dogs, the dogs initially received a single gastric gavage of a low dose (2 mg/kg) of ammoxetine, followed by a 1-week washout period. After the washout, the same dose of ammoxetine was administered intravenously (i.v.). To assess the effects of nonfasting on ammoxetine PK, dogs that received a medium dose (5 mg/kg) of ammoxetine via gastric gavage underwent a radical washout period of 1 week. Subsequently, they were administered the same dose of ammoxetine via gastric gavage under nonfasting conditions. To compare sex differences in ammoxetine PK, an additional five female beagle dogs were administered a medium dose (5 mg/kg) of ammoxetine via gastric gavage after a 12-h overnight fast. Blood samples (2 mL) were collected from these dogs into heparinized tubes at predose and at specified time points: 5, 15, 30, and 45 min, as well as 1, 2, 4, 6, 8, 12, and 24 h postdose. For the repeat-dose study, after completing blood collection during the initial administration, dogs receiving a single gastric gavage of a medium dose (5 mg/kg) of ammoxetine under fasting conditions were subsequently orally dosed with seven repeat doses of ammoxetine (5 mg/kg) every 12 h. Trough blood samples were collected before the fourth to last administration to ensure steady-state blood concentrations (C ss ) were achieved. Approximately 2 mL of blood was collected at specified time points after the last dose and transferred into heparinized tubes. All blood samples were then centrifuged at 4,000 r/min for 20 min to obtain plasma samples, which were stored at −30°C until analysis.
To determine the concentration of ammoxetine, 100 μL of L-phencynonate (IS, 50 ng/mL) and 300 μL of methanol were added to 100 μL of plasma samples from rats or dogs. After thorough vortexing, the mixture was centrifuged at 13,800×g for 10 min. The supernatants were then subjected to analysis using LC-MS-MS methods. PK parameters were calculated using DAS (Drug And Statistics for Windows) version 2.0, developed by the Shanghai University of Traditional Chinese Medicine, Shanghai, China. The F was determined by comparing the plasma area under the concentration-time curve (AUC) values after oral (p.o.) and intravenous (i.v.) administration of ammoxetine. F was calculated using the formula: F=AUCp.o./AUCi.v.×100% . Statistical analyses were performed using OriginPro 8.6 software. Paired sample or student’s t-test, as well as one-way ANOVA, were employed to compare the means of two or three groups, with a significance level set at p < 0.05.

[2] = test system: P-gp; conditions: ref Ruike et al., 2010; cited from earlier work

CNCC[C@H](Oc1cccc2ccccc12)c1cccs1 [duloxetine, reference compound]
bioavailability [1]: ~33%
action on P-gp [2]: P-gp inhibitor
